± gives the expanded uncertainty stated by the source.
Experiment: xn = mol fraction of the nth substance listed
Conditions: for surface tension liquid-gas: Drop volume; for viscosity / speed of sound / mass density: 99 kPa, Liquid; for viscosity: Capillary tube (Ostwald / Ubbelohde) method; for speed of sound: Frequency=3 MHz, Sing-around technique in a fixed-path interferometer; for mass density: Vibrating tube method

CCCC[n+]1ccccc1.F[B-](F)(F)F [1-butylpyridinium tetrafluoroborate] + O
Conditions	mass density [kg/m3]	speed of sound [m/s]	surface tension liquid-gas [mN/m]	viscosity [mPa·s]
293.15 K, x1 = 0.0115	–	–	57.1 ± 0.6	–
293.15 K, x1 = 0.0165	1028.6 ± 1.1	1539 ± 1.3	–	–
293.15 K, x1 = 0.0185	–	–	54.3 ± 0.6	–
293.15 K, x1 = 0.0271	–	–	52.5 ± 0.6	–
293.15 K, x1 = 0.0372	–	–	51.3 ± 0.6	–
293.15 K, x1 = 0.0379	1058 ± 1	1572.7 ± 1.2	–	–
293.15 K, x1 = 0.0456	–	–	50.7 ± 0.5	–
293.15 K, x1 = 0.047	–	–	–	1.379 ± 0.11
293.15 K, x1 = 0.0863	1100.2 ± 1	1606.7 ± 1.2	–	–
293.15 K, x1 = 0.0942	–	–	49.2 ± 0.5	–
293.15 K, x1 = 0.095	–	–	–	1.806 ± 0.14
293.15 K, x1 = 0.101	1109.3 ± 1	1612.3 ± 1.2	–	–
293.15 K, x1 = 0.134	1125.6 ± 1	1620.9 ± 1.3	–	–
293.15 K, x1 = 0.1907	–	–	48.7 ± 0.5	–
293.15 K, x1 = 0.2001	–	–	–	3.439 ± 0.28
293.15 K, x1 = 0.243	1158.2 ± 1	1630 ± 1.3	–	–
293.15 K, x1 = 0.2846	–	–	48.3 ± 0.5	–
293.15 K, x1 = 0.289	1167 ± 1	1629.4 ± 1.3	–	–
293.15 K, x1 = 0.2912	–	–	–	5.459 ± 0.44
293.15 K, x1 = 0.34	–	–	48.3 ± 0.5	–
293.15 K, x1 = 0.3456	1175.6 ± 1	1627.7 ± 1.3	–	–
293.15 K, x1 = 0.3866	–	–	48 ± 0.5	–
293.15 K, x1 = 0.4015	–	–	–	10.4 ± 0.83
293.15 K, x1 = 0.4217	1184.5 ± 1	1624.5 ± 1.3	–	–
293.15 K, x1 = 0.4807	–	–	–	15.2 ± 1.2
293.15 K, x1 = 0.486	–	–	47.7 ± 0.5	–
293.15 K, x1 = 0.5485	1195.4 ± 1	1619.7 ± 1.4	–	–
293.15 K, x1 = 0.5777	–	–	47.5 ± 0.5	–
293.15 K, x1 = 0.5815	–	–	–	23.72 ± 1.9
293.15 K, x1 = 0.6029	1199 ± 1	1618 ± 1.4	–	–
293.15 K, x1 = 0.6641	–	–	–	34.53 ± 2.8
293.15 K, x1 = 0.6943	–	–	47.3 ± 0.5	–
293.15 K, x1 = 0.7232	1205.7 ± 1	1614.9 ± 1.4	–	–
293.15 K, x1 = 0.7779	–	–	47 ± 0.5	–
293.15 K, x1 = 0.7855	–	–	–	67.74 ± 5.4
293.15 K, x1 = 0.8005	1209.3 ± 1	1613.5 ± 1.5	–	–
293.15 K, x1 = 0.835	–	–	46.8 ± 0.5	–
293.15 K, x1 = 0.8575	1211.7 ± 1	1612.8 ± 1.5	–	–
293.15 K, x1 = 0.8875	–	–	–	121.1 ± 9.8
293.15 K, x1 = 0.925	–	–	46.8 ± 0.6	–
293.15 K, x1 = 0.9305	–	–	–	149.6 ± 12
293.15 K, x1 = 0.9315	1214.5 ± 1.1	1612 ± 1.5	–	–
293.15 K, x1 = 0.9705	–	–	–	189.6 ± 16
293.15 K, x1 = 1	1217.1 ± 1.1	1611.5 ± 1.6	46.9 ± 0.6	220.5 ± 18
303.15 K, x1 = 0.0115	–	–	56.4 ± 0.6	–
303.15 K, x1 = 0.0165	1025.3 ± 1	1552 ± 1.3	–	–
303.15 K, x1 = 0.0185	–	–	54 ± 0.6	–
303.15 K, x1 = 0.0271	–	–	52.1 ± 0.6	–
303.15 K, x1 = 0.0372	–	–	51 ± 0.6	–
303.15 K, x1 = 0.0379	1053.9 ± 1	1576.9 ± 1.2	–	–
303.15 K, x1 = 0.0456	–	–	50.4 ± 0.5	–
303.15 K, x1 = 0.047	–	–	–	1.082 ± 0.087
303.15 K, x1 = 0.0863	1094.8 ± 1	1600.1 ± 1.2	–	–
303.15 K, x1 = 0.0942	–	–	49.1 ± 0.5	–
303.15 K, x1 = 0.095	–	–	–	1.333 ± 0.11
303.15 K, x1 = 0.101	1103.7 ± 1	1603.2 ± 1.2	–	–
303.15 K, x1 = 0.134	1119.5 ± 1	1608.1 ± 1.2	–	–
303.15 K, x1 = 0.1907	–	–	48.5 ± 0.5	–
303.15 K, x1 = 0.2001	–	–	–	2.475 ± 0.2
303.15 K, x1 = 0.243	1151.3 ± 1	1610.7 ± 1.3	–	–
303.15 K, x1 = 0.2846	–	–	48.1 ± 0.5	–
303.15 K, x1 = 0.289	1159.9 ± 1	1608.8 ± 1.3	–	–
303.15 K, x1 = 0.2912	–	–	–	4.217 ± 0.34
303.15 K, x1 = 0.34	–	–	47.9 ± 0.5	–
303.15 K, x1 = 0.3456	1168.3 ± 1	1606.1 ± 1.3	–	–
303.15 K, x1 = 0.3866	–	–	47.6 ± 0.5	–
303.15 K, x1 = 0.4015	–	–	–	7.329 ± 0.59
303.15 K, x1 = 0.4217	1177.2 ± 1	1602.7 ± 1.3	–	–
303.15 K, x1 = 0.4807	–	–	–	10.67 ± 0.86
303.15 K, x1 = 0.486	–	–	47.3 ± 0.5	–
303.15 K, x1 = 0.5485	1188 ± 1	1597.4 ± 1.4	–	–
303.15 K, x1 = 0.5777	–	–	47 ± 0.5	–
303.15 K, x1 = 0.5815	–	–	–	15.59 ± 1.2
303.15 K, x1 = 0.6029	1191.7 ± 1	1595.6 ± 1.4	–	–
303.15 K, x1 = 0.6641	–	–	–	22.31 ± 1.8
303.15 K, x1 = 0.6943	–	–	46.7 ± 0.5	–
303.15 K, x1 = 0.7232	1198.5 ± 1	1592.3 ± 1.4	–	–
303.15 K, x1 = 0.7779	–	–	46.5 ± 0.5	–
303.15 K, x1 = 0.7855	–	–	–	41.77 ± 3.4
303.15 K, x1 = 0.8005	1202.2 ± 1	1590.7 ± 1.5	–	–
303.15 K, x1 = 0.835	–	–	46.2 ± 0.5	–
303.15 K, x1 = 0.8575	1204.6 ± 1	1589.7 ± 1.5	–	–
303.15 K, x1 = 0.8875	–	–	–	72.76 ± 5.9
303.15 K, x1 = 0.925	–	–	46.2 ± 0.5	–
303.15 K, x1 = 0.9305	–	–	–	90.38 ± 7.3
303.15 K, x1 = 0.9315	1207.6 ± 1.1	1588.9 ± 1.5	–	–
303.15 K, x1 = 0.9705	–	–	–	106.5 ± 8.6
303.15 K, x1 = 1	1210.3 ± 1.1	1588.1 ± 1.6	46.3 ± 0.6	119.5 ± 9.7

Reference: the NIST ThermoML archive (doi:10.1016/j.jct.2016.04.003)
